In patent US11524938B2, “Aromatic sulfonamide derivatives” (Bayer Pharma Aktiengesellschaft, priority 2016, dated 2022):

Molecular target: T1, human P2X4 (Homo sapiens, UniProt Q99571)
T1 sequence (Q99571 1-388): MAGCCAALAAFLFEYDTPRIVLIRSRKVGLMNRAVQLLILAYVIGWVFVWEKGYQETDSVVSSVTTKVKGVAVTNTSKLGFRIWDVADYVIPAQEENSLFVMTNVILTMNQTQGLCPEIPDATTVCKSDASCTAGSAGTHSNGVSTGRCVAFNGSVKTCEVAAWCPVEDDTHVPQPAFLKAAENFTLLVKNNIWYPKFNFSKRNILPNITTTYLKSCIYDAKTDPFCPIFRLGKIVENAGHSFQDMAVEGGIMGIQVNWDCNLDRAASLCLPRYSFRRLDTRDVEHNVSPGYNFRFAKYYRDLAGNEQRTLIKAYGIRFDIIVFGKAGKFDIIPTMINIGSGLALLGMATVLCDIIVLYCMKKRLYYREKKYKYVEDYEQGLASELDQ
Experiment: Human P2X4 HEK Cell FLIPR Assay
Format: cell-based
Settings: agonist Bz-ATP at EC80; for Emax: HEK293, HEK293 cells, percentage of maximal inhibition, read-out: Human P2X4 HEK Cells (FLIPR Assay) avg Efficacy [%]; for IC50: HEK293 cells, individual values listed where some fall outside detection range
Outline: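 Calcium flux read by FLIPR for 120 sec after Bz-ATP challenge at EC80 (established each assay day), following 30 min room-temperature compound preincubation in dye-loaded stable human P2X4 HEK293 cells. Peak RFU over basal normalized to agonist control; IC50, maximal inhibition and Hill coefficient from triplicate means.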

Emax [%]	IC50 [nM]	SMILES
62	263	COc1ccccc1CC(=O)Nc1ccc(-n2cc(C(F)(F)F)cn2)c(S(N)(=O)=O)c1 [Example 112, 2-(2-Methoxyphenyl)-N-{3-sulfamoyl-4-[4-(trifluoromethyl)-1H-pyrazol-1-yl]phenyl}-acetamide]
75	155	NS(=O)(=O)c1cc(NC(=O)Cc2c(Cl)cccc2Cl)ccc1-n1cc(C(F)(F)F)cn1 [Example 116, 2-(2,6-Dichlorophenyl)-N-{3-sulfamoyl-4-[4-(trifluoromethyl)-1H-pyrazol-1-yl]phenyl}-acetamide]
53	347	NS(=O)(=O)c1cc(NC(=O)Cc2ccc(F)c(F)c2)ccc1-n1cc(C(F)(F)F)cn1 [Example 118, 2-(3,4-Difluorophenyl)-N-{3-sulfamoyl-4-[4-(trifluoromethyl)-1H-pyrazol-1-yl]phenyl}-acetamide]
31	> 25000	NS(=O)(=O)c1cc(NC(=O)Cc2cccc(Cl)c2)ccc1-n1cc(C(F)(F)F)cn1 [Example 120, 2-(3-Chlorophenyl)-N-{3-sulfamoyl-4-[4-(trifluoromethyl)-1H-pyrazol-1-yl]phenyl}-acetamide]
88	266	NS(=O)(=O)c1cc(NC(=O)Cc2cccc(F)c2F)ccc1-n1cc(C(F)(F)F)cn1 [Example 122, 2-(2,3-Difluorophenyl)-N-{3-sulfamoyl-4-[4-(trifluoromethyl)-1H-pyrazol-1-yl]phenyl}-acetamide]
79	109	Cc1ccccc1CC(=O)Nc1ccc(-n2cc(C(F)(F)F)cn2)c(S(N)(=O)=O)c1 [Example 123, 2-(2-Methylphenyl)-N-{3-sulfamoyl-4-[4-(trifluoromethyl)-1H-pyrazol-1-yl]phenyl}-acetamide]
62	166	Cc1cccc(CC(=O)Nc2ccc(-n3cc(C(F)(F)F)cn3)c(S(N)(=O)=O)c2)c1 [Example 124, 2-(3-Methylphenyl)-N-{3-sulfamoyl-4-[4-(trifluoromethyl)-1H-pyrazol-1-yl]phenyl}-acetamide]
91	107	Cc1ccc(Cl)c(CC(=O)Nc2ccc(-n3cc(C(F)(F)F)cn3)c(S(N)(=O)=O)c2)c1 [Example 128, 2-(2-Chloro-5-methylphenyl)-N-{3-sulfamoyl-4-[4-(trifluoromethyl)-1H-pyrazol-1-yl]-phenyl}acetamide]
89	157	NS(=O)(=O)c1cc(NC(=O)Cc2ccccc2OC(F)(F)F)ccc1-n1cc(C(F)(F)F)cn1 [Example 129, N-{3-Sulfamoyl-4-[4-(trifluoromethyl)-1H-pyrazol-1-yl]phenyl}-2-[2-(trifluoro-methoxy)phenyl]acetamide]
71	284	NS(=O)(=O)c1cc(NC(=O)Cc2cc(F)c(F)cc2Cl)ccc1-n1cc(C(F)(F)F)cn1 [Example 130, 2-(2-Chloro-4,5-difluorophenyl)-N-{3-sulfamoyl-4-[4-(trifluoromethyl)-1H-pyrazol-1-yl]phenyl}acetamide]
82	107	NS(=O)(=O)c1cc(NC(=O)Cc2c(F)ccc(F)c2Cl)ccc1-n1cc(C(F)(F)F)cn1 [Example 133, 2-(2-Chloro-3,6-difluorophenyl)-N-{3-sulfamoyl-4-[4-(trifluoromethyl)-1H-pyrazol-1-yl]phenyl}acetamide]
89	147	NS(=O)(=O)c1cc(NC(=O)Cc2c(Cl)cccc2C(F)(F)F)ccc1-n1cc(C(F)(F)F)cn1 [Example 134, 2-[2-Chloro-6-(trifluoromethyl)phenyl]-N-{3-sulfamoyl-4-[4-(trifluoromethyl)-1H-pyrazol-1-yl]phenyl}acetamide]
90	73	COc1ccc(CC(=O)Nc2ccc(-n3cc(C(F)(F)F)cn3)c(S(N)(=O)=O)c2)c(Cl)c1 [Example 135, 2-(2-Chloro-4-methoxyphenyl)-N-{3-sulfamoyl-4-[4-(trifluoromethyl)-1H-pyrazol-1-yl]phenyl}acetamide]

Further lines, the compound ahead of its results:

SMILES	Emax [%]	IC50 [nM]
NS(=O)(=O)c1cc(NC(=O)Cc2c(F)cccc2Cl)ccc1-n1cc(C(F)(F)F)cn1 [Example 113, 2-(2-Chloro-6-fluorophenyl)-N-{3-sulfamoyl-4-[4-(trifluoromethyl)-1H-pyrazol-1-yl]phenyl}acetamide]	86	133
NS(=O)(=O)c1cc(NC(=O)Cc2cccc(F)c2)ccc1-n1cc(C(F)(F)F)cn1 [Example 114, 2-(3-Fluorophenyl)-N-{3-sulfamoyl-4-[4-(trifluoromethyl)-1H-pyrazol-1-yl]phenyl}-acetamide]	69	367
NS(=O)(=O)c1cc(NC(=O)Cc2cc(F)cc(F)c2)ccc1-n1cc(C(F)(F)F)cn1 [Example 115, 2-(3,5-Difluorophenyl)-N-{3-sulfamoyl-4-[4-(trifluoromethyl)-1H-pyrazol-1-yl]phenyl}-acetamide]	57	802
NS(=O)(=O)c1cc(NC(=O)Cc2ccccc2Br)ccc1-n1cc(C(F)(F)F)cn1 [Example 117, 2-(2-Bromophenyl)-N-{3-sulfamoyl-4-[4-(trifluoromethyl)-1H-pyrazol-1-yl]phenyl}-acetamide]	66	102
NS(=O)(=O)c1cc(NC(=O)Cc2ccc(F)cc2)ccc1-n1cc(C(F)(F)F)cn1 [Example 119, 2-(4-Fluorophenyl)-N-{3-sulfamoyl-4-[4-(trifluoromethyl)-1H-pyrazol-1-yl]phenyl}-acetamide]	55	270
COc1ccc(CC(=O)Nc2ccc(-n3cc(C(F)(F)F)cn3)c(S(N)(=O)=O)c2)cc1 [Example 121, 2-(4-Methoxyphenyl)-N-{3-sulfamoyl-4-[4-(trifluoromethyl)-1H-pyrazol-1-yl]phenyl}-acetamide]	70	292
NS(=O)(=O)c1cc(NC(=O)Cc2ccccc2OC(F)F)ccc1-n1cc(C(F)(F)F)cn1 [Example 125, 2-[2-(Difluoromethoxy)phenyl]-N-{3-sulfamoyl-4-[4-(trifluoromethyl)-1H-pyrazol-1-yl]phenyl}acetamide]	86	292
NS(=O)(=O)c1cc(NC(=O)Cc2cccnc2Cl)ccc1-n1cc(C(F)(F)F)cn1 [Example 126, 2-(2-Chloropyridin-3-yl)-N-{3-sulfamoyl-4-[4-(trifluoromethyl)-1H-pyrazol-1-yl]phenyl}acetamide]	92	1910
NS(=O)(=O)c1cc(NC(=O)Cc2ccc(F)cc2Cl)ccc1-n1cc(C(F)(F)F)cn1 [Example 127, 2-(2-Chloro-4-fluorophenyl)-N-{3-sulfamoyl-4-[4-(trifluoromethyl)-1H-pyrazol-1-yl]phenyl}acetamide]	85	209
NS(=O)(=O)c1cc(NC(=O)Cc2cccc(C(F)(F)F)c2Cl)ccc1-n1cc(C(F)(F)F)cn1 [Example 131, 2-[2-Chloro-3-(trifluoromethyl)phenyl]-N-{3-sulfamoyl-4-[4-(trifluoromethyl)-1H-pyrazol-1-yl]phenyl}acetamide]	58	155
Cc1ccc(F)c(CC(=O)Nc2ccc(-n3cc(C(F)(F)F)cn3)c(S(N)(=O)=O)c2)c1Cl [Example 132, 2-(2-Chloro-6-fluoro-3-methylphenyl)-N-{3-sulfamoyl-4-[4-(trifluoromethyl)-1H-pyrazol-1-yl]phenyl}acetamide]	62	80
